Assay results from patent publication US20160046616A1, “NRF2 SMALL MOLECULE INHIBITORS FOR CANCER THERAPY” (THE JOHNS HOPKINS UNIVERSITY, priority 2013, published 2016).
Like-named read-outs stand apart in the source and are kept apart here.

Assays:
[1] = tested on: A549 NRF2-ARE-Fluc stable cell line; experiment: A549 Nrf2 assay: NRF2-ARE firefly luciferase reporter gene assay; type: cell-based; conditions: read-out: Potency of inhibition, A549
How it was run: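 A549 cells (Keap1 loss-of-function, constitutive NRF2) stably carrying ARE-driven firefly luciferase; compound treatment 18–24 h at 37 °C, 0.46% DMSO final.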

[2] = tested on: H1437 NRF2-ARE-Fluc stable cell line; experiment: H1437 Nrf2 assay: NRF2-ARE firefly luciferase reporter gene assay; type: cell-based; conditions: read-out: Potency of inhibition, H1437
[3] = Homo sapiens, NCI-H1437, H1437 NRF2-ARE-Fluc stable cell line

Structure (SMILES)	IC50 ([1]; Homo sapiens)	IC50 [2, 3]	IC50 [1]	IC50 ([2]; H1437 NRF2-ARE-Fluc stable cell line)
O=C(Nc1cccc(S(=O)(=O)N2CCOCC2)c1)c1ccc(CN2CCc3ccccc3C2)cc1 [compound 119]	5 to 25 µM	> 25 µM		
CCOC(=O)N1CCN(S(=O)(=O)c2ccc(NC(=O)c3ccc(CN4CCc5ccccc5C4)cc3)cc2)CC1 [Compound 199]	< 5 µM	< 5 µM		
Cc1ccc(C(=O)N2CCc3cc(-c4nc(NC(=O)Cc5ccc6c(c5)OCO6)sc4C)ccc32)cc1 [Compound 23]	5 to 25 µM	> 25 µM		
COc1ccccc1C(=O)N1CCc2cc(-c3nc(NC(=O)Cc4ccc5c(c4)OCO5)sc3C)ccc21 [Compound 120]	< 5 µM	> 25 µM		
O=C(Nc1ccc(S(=O)(=O)N2CCN(Cc3ccccc3)CC2)cc1)c1cnccn1 [Compound 34]	< 5 µM	5 to 25 µM		
O=C(Nc1ccc(S(=O)(=O)N2CCOCC2)cc1)c1ccc(CN2Cc3ccccc3C2)cc1 [Compound 204]	< 5 µM	< 5 µM		
Cc1sc(NC(=O)Cc2ccc3c(c2)OCO3)nc1-c1ccc2c(c1)CCN2C(=O)c1ccccc1C(C)C [Compound 138]	< 5 µM	> 25 µM		
Cc1cc(C(=O)Nc2ncc(Cc3ccc(C(F)(F)F)cc3)s2)nn1Cc1ccccn1 [Compound 193]	< 5 µM	< 5 µM		
Cc1occc1C(=O)N1CCc2cc(-c3nc(NC(=O)Cc4ccc5c(c4)OCO5)sc3C)ccc21 [Compound 159]	< 5 µM	< 5 µM		
Cc1ccccc1S(=O)(=O)N1CCc2cc(-c3nc(NC(=O)Cc4ccccc4C(F)(F)F)sc3C)ccc21 [Compound 129]	< 5 µM	> 25 µM		
Cc1ccc(NC(=O)c2ccc(S(=O)(=O)N(C)c3ccccc3)cc2)cc1S(=O)(=O)N1CCOCC1 [Compound 46]	< 5 µM	5 to 25 µM		
O=C(Cc1ccccc1)Nc1cccc(-c2ccc(N3CCOCC3)cc2)n1 [Compound 78]	> 25 µM	> 25 µM		
Cc1ccccc1C(=O)N1CCc2cc(-c3nc(NC(=O)CN4CCCCC4)sc3C)ccc21 [Compound 66]	5 to 25 µM	5 to 25 µM		
Cc1cc(C(=O)Nc2ncc(Cc3ccc(C(F)(F)F)cc3)s2)nn1CCN1CCOCC1 [Compound 194]	5 to 25 µM	5 to 25 µM		
O=C(Cc1ccccc1)Nc1cccc(-c2ccc3[nH]ncc3c2)n1 [Compound 91, N-(6-(1H-indazol-5-yl)pyridin-2-yl)-2-phenylacetamide]	5 to 25 µM	> 25 µM		
Cc1cccc(Cc2cnc(NC(=O)c3ccn(-c4ccccc4)n3)s2)c1 [Compound 217]	5 to 25 µM	5 to 25 µM		
Cc1ccccc1S(=O)(=O)N1CCc2cc(-c3nc(NC(=O)Cc4cccc(F)c4)sc3C)ccc21 [Compound 126]			< 5 µM	> 25 µM
Cc1cccc(C(=O)N2CCc3cc(-c4nc(NC(=O)Cc5ccc6c(c5)OCO6)sc4C)ccc32)c1 [Compound 29]	> 25 µM	5 to 25 µM		
CN(C1CCOCC1)S(=O)(=O)c1ccc(NC(=O)c2ccc(CN3CCc4ccccc4C3)cc2)cc1 [compound 167]	< 5 µM	5 to 25 µM		
O=C(Cc1ccccc1)Nc1cccc(-c2ccc3[nH]c(-c4ccccc4)nc3c2)n1 [Compound 92]	5 to 25 µM	> 25 µM		

Structure (SMILES)	IC50 ([1]; Homo sapiens)	IC50 [2, 3]	IC50 [1]	IC50 ([2]; H1437 NRF2-ARE-Fluc stable cell line)
Cc1ccccc1C(=O)n1ccc2cc(-c3nc(NC(=O)Cc4ccc5c(c4)OCO5)sc3C)ccc21 [Compound 30]	5 to 25 µM	5 to 25 µM		
Cc1ccccc1C(=O)N1CCc2cc(-c3nc(NC(=O)Cc4ccc(O)cc4)sc3C)ccc21 [Compound 235, 2-(4-hydroxyphenyl)-N-(5-methyl-4-(1-(2-methylbenzoyl)indolin-5-yl)thiazol-2-yl)acetamide]	5 to 25 µM	5 to 25 µM		
Cc1ccccc1S(=O)(=O)N1CCc2cc(-c3nc(NC(=O)Cc4ccccc4F)sc3C)ccc21 [Compound 122]	< 5 µM	< 5 µM		
O=C(Nc1ncc(Cc2ccc(C(F)(F)F)cc2)s1)c1ccn(-c2ccccc2)n1 [Compound 110]	< 5 µM	5 to 25 µM		
Cc1ccccc1S(=O)(=O)N1CCc2cc(-c3nc(NC(=O)Cc4cccc(C(F)(F)F)c4)sc3C)ccc21 [Compound 132]	5 to 25 µM	5 to 25 µM		
O=C(Nc1ncc(Cc2ccc(C(F)(F)F)cc2)s1)c1c[nH]c(-c2ccccc2)n1 [Compound 118]	5 to 25 µM	> 25 µM		
Cc1sc(NC(=O)Cc2ccc3c(c2)OCO3)nc1-c1ccc2c(c1)CCN2C(=O)c1ccccc1F [Compound 115]	< 5 µM	< 5 µM		
CC(=O)Nc1nc(-c2ccc3c(c2)CCN3C(=O)c2ccccc2C)c(C)s1 [Compound 11]	5 to 25 µM	< 5 µM		
O=C(Nc1ncc(Cc2ccc(C(F)(F)F)cc2)s1)c1ccn(-c2cccc([N+](=O)[O-])c2)n1 [Compound 117]	< 5 µM	> 25 µM		
CC(=O)N1CCN(Cc2ccc(C(=O)Nc3ccc(S(=O)(=O)N4CCOCC4)cc3)cc2)CC1 [Compound 201]	5 to 25 µM	5 to 25 µM		
Cc1ccccc1C(=O)N1CCc2cc(-c3nc(NC(=O)CN4CCN(C(=O)C5CC5)CC4)sc3C)ccc21 [Compound 212]	< 5 µM	< 5 µM		
O=C(Nc1ncc(Cc2ccc(C(F)(F)F)cc2)s1)c1cn(-c2ccccc2)cn1 [Compound 164]	< 5 µM	> 25 µM		
Nc1ccc(-c2cccc(NC(=O)Cc3ccccc3)n2)cc1 [Compound 80, N-(6-(4-aminophenyl)pyridin-2-yl)-2-phenylacetamide]	> 25 µM	> 25 µM		
Cc1ccc(CC(=O)Nc2nc(-c3ccc4c(c3)CCN4S(=O)(=O)c3ccccc3C)c(C)s2)cc1 [Compound 133]	< 5 µM	> 25 µM		
Cc1ccccc1C(=O)N1CCc2cc(-c3nc(NC(=O)Cc4ccccc4)sc3C)ccc21 [Compound 8]	< 5 µM	< 5 µM		
COCCN(C)S(=O)(=O)c1ccc(NC(=O)c2ccc(CN3CCc4ccccc4C3)cc2)cc1 [compound 174]	< 5 µM	> 25 µM		
O=C(Nc1ncc(Cc2ccc(C(F)(F)F)cc2)s1)c1ccn(Cc2ccccn2)n1 [Compound 192]	> 25 µM	> 25 µM		
Cc1ccc(C(=O)Nc2ccc(S(=O)(=O)N3CCOCC3)cc2)cc1 [compound 51]	5 to 25 µM	> 25 µM		
Cc1sc(NC(=O)Cc2ccc3c(c2)OCO3)nc1-c1ccc2c(c1)CCN2C(=O)c1cccn1C [Compound 184]	< 5 µM	< 5 µM		
O=C(Nc1ccc(S(=O)(=O)N2CCOCC2)cc1)c1ccc(CCN2CCc3ccccc3C2)cc1 [compound 166]	< 5 µM	5 to 25 µM		

Structure (SMILES)	IC50 ([1]; Homo sapiens)	IC50 [2, 3]	IC50 [1]	IC50 ([2]; H1437 NRF2-ARE-Fluc stable cell line)
Cc1nccc(Cn2ccc(C(=O)Nc3ncc(Cc4ccc(C(F)(F)F)cc4)s3)n2)n1 [Compound 190]	5 to 25 µM	5 to 25 µM		
NC(=O)C1CCN(c2ccc(S(=O)(=O)N3CCC(Cc4ccccc4)CC3)cn2)CC1 [Compound 41]	< 5 µM	5 to 25 µM		
Cc1ccccc1S(=O)(=O)N1CCc2cc(-c3nc(NC(=O)Cc4ccc5c(c4)OCO5)sc3C)ccc21 [Compound 24]	< 5 µM	5 to 25 µM		
CCOC(=O)N1CCN(Cc2ccc(C(=O)Nc3ccc([S+](=O)([O-])N4CCOCC4)cc3)cc2)CC1 [Compound 202]	5 to 25 µM	5 to 25 µM		
CC(=O)N1CCc2cc(-c3nc(NC(=O)Cc4ccc5c(c4)OCO5)sc3C)ccc21 [Compound 21]	< 5 µM	5 to 25 µM		
CN(C)[S+](=O)([O-])c1ccc(NC(=O)c2ccc(CN3CCc4ccccc4C3)cc2)cc1 [compound 148]	< 5 µM	> 25 µM		
O=C(Nc1ncc(Cc2ccc(C(F)(F)F)cc2)s1)c1ncc(-c2ccccc2)[nH]1 [Compound 151]	> 25 µM	> 25 µM		
COc1cccc(Cc2cnc(NC(=O)c3ccn(-c4ccccc4)n3)s2)c1 [Compound 219]	< 5 µM	5 to 25 µM		
CCN(CC)S(=O)(=O)c1cccc(C(=O)Nc2ccc(C#N)cc2)c1 [Compound 32]	< 5 µM	5 to 25 µM		
COc1ccc(CC(=O)Nc2nc(-c3ccc4c(c3)CC(C)N4C(=O)c3ccccc3C)c(C)s2)cc1 (stereo not drawn) [Compound 232]	5 to 25 µM	5 to 25 µM		
Cc1ccccc1C(=O)N1CCc2cc(-c3nc(NC(=O)CN4CCN(C)CC4)sc3C)ccc21 [Compound 72]	> 25 µM	5 to 25 µM		
Cc1ccccc1C(=O)N1CCc2cc(-c3nc(NC(=O)CN4CCOCC4)sc3C)ccc21 [Compound 77]	5 to 25 µM	5 to 25 µM		
CC1CCCN(C(=O)c2ccc(S(=O)(=O)N3CCC(c4nc5ccccc5s4)CC3)cc2)C1 (stereo not drawn) [Compound 36]	< 5 µM	< 5 µM		
O=C(Cc1ccccc1)Nc1cccc(-c2cnc3[nH]ccc3c2)n1 [Compound 88, N-(6-(1H-pyrrolo[2,3-b]pyridin-5-yl)pyridin-2-yl)-2-phenylacetamide]	5 to 25 µM	> 25 µM		
Cc1ccccc1Cc1cnc(NC(=O)c2ccn(-c3ccccc3)n2)s1 [Compound 214]	5 to 25 µM	5 to 25 µM		
CN(C(=O)c1ccc(CN2CCc3ccccc3C2)cc1)c1ccc(S(=O)(=O)N2CCOCC2)cc1 [compound 225]	5 to 25 µM	> 25 µM		
Cc1ccncc1C(=O)N1CCc2cc(-c3nc(NC(=O)Cc4ccc5c(c4)OCO5)sc3C)ccc21 [Compound 140]	< 5 µM	< 5 µM		
O=C(Nc1ncc(Cc2ccccc2Cl)s1)c1ccn(-c2ccccc2)n1 [Compound 216]	5 to 25 µM	5 to 25 µM		
O=C(Nc1cc(Cc2ccccc2)ccn1)c1ccc(-c2cccc([N+](=O)[O-])c2)o1 [Compound 150]	< 5 µM	> 25 µM		
CC1(C)CC2CC(C)(CN2S(=O)(=O)c2ccc(C(=O)Nc3cccc(S(=O)(=O)N4CCOCC4)c3)cc2)C1 (stereo not drawn) [compound 52]	< 5 µM	< 5 µM		
